{"source": "patent US12358963B2", "about": "“Regenerative polypeptides and uses thereof” (Juvena Therapeutics, Inc., priority 2019, dated 2025)", "assay_type_in_all_cases": "cell-based", "key": {"Mouse myoblasts": {"system": "Mouse myoblasts", "experiment": "Mouse myoblast fusion index with sodium butyrate", "conditions": "48h, vehicle 7.56", "experimental": "Mouse myoblasts were treated with PBS or sodium butyrate at concentrations 0.1 nM, 1 nM, and 10 nM. Myoblasts were cultured for 48 hours, with fresh media added every 24 hours. Cells were pulsed for 2-5 hours with EdU (30 uM), ethanol fixed, stained with Hoescht 3342, immunostained for proliferation—as measured by the percent of cells staining positive for EdU (% EdU)—, and immunostained for differentiation—as measured by the increase in cellular area staining positive for embryonic myosin heavy chain (% eMyHC) relative to the negative controls, which received media and vehicle only. […] Significance was determined by a p-value less than 0.05 by the one-way ANOVA Tukey Honest Significant Difference test.\nFIG. 2A: Bar graph of fusion index in response to sodium butyrate (NaBut) compared to vehicle. Myoblast were cultured 48h in the presence of NaBut at indicated dose. Fresh media and NaBut were added every 24h. Mean∓S.D. Table quantitation of fusion index and p-values also shown. (*p<0.05 by Student's Two-tailed T-test, n=3-5)"}, "DM1 human myoblast": {"system": "DM1 human myoblast", "experiment": "Gene expression fold change in DM1 human myoblast", "conditions": "48h; BMP7 50 ng/mL, Butyrate 100 nM, IGF2 200 ng/mL; FM 1.000"}, "human myoblast cells [1]": {"system": "human myoblast cells", "experiment": "Human myoblast differentiation, % area eMyHC (IGF2, sodium butyrate)", "conditions": "96h, vehicle 6.813", "experimental": "Fresh media was added every 24 hours. […] The total area of eMyHc positive cells was analyzed, and treated cells were compared to cells treated with the vehicle alone. […] Myoblast were cultured 96h in the presence of BMP7 at indicated dose. Fresh media and BMP7 was added every 24h. Mean∓S.D. (*p<0.05 by One-Way Anova Tukey Honest Significant Difference, n=2-12) […] Fresh media was added every 24 hours. […] FIG. 3A: Bar graph of % Area eMyHC+ age human myoblast (person) in response to indicated treatment compared to Vehicle (vehicle). Myoblast were cultured 96h in the presence of factors at indicated dose. Fresh media and factors were added every 24h. Mean∓S.D. Significant p-values (Vehicle IGF2: 0.03 ug/mL: 1.42E-08, Vehicle NaBut: 1 nM IGF2: 0.03 ug/mL: 1.79E-11, Vehicle NaBut: 10 nM IGF2: 0.03 ug/mL: 1.80E-11, Vehicle NaBut: 100 nM IGF2: 0.03 ug/mL: 1.79E-11). […] Myoblast were cultured 96h in the presence of BMP7 at indicated dose. Mean±S.D. Significant p-values (IGF2 NaBut: 1 nM IGF2: 0.03 ug/mL: 1.88E-3, Vehicle NaBut: 10 nM IGF2: 0.03 ug/mL: 4.80E-3, Vehicle NaBut: 100 nM IGF2: 0.03 ug/mL: 1.87E-3) (*p<0.05 by One-Way ANOVA Tukey Honest Significant Difference, n=2-12)"}, "mouse myoblast cells": {"system": "mouse myoblast cells", "experiment": "Mouse myoblast proliferation assay (EdU)", "conditions": "for % EdU: vehicle 3.14", "experimental": "FIG. 5A) Bar graph quantitation of % EdU+ mouse myoblast in response to BMP7. Myoblast were cultured 48h in the presence of BMP7 at indicated dose. Fresh media and BMP7 was added every 24h, followed by 2 hour EdU pulse and fixation. Mean∓S.D. Significant p-values (Vehicle˜BMP7 0.025 ug/mL: 1.21E-07, Vehicle˜BMP7 0.075 ug/mL: 8.05E-07, Vehicle˜BMP7 0.2255 ug/mL: 3.37E-03, Vehicle˜BMP7 0.9 ug/mL: 4.99E-02). FIG. 5B) Bar graph quantitation of % EdU+ human myoblast (person) in response to BMP7. Myoblast were cultured 72h in the presence of BMP7 at indicated dose. Cells were pulsed with EdU for 4 hours before fixation. Mean∓S.D. Significant p-values (Vehicle˜BMP7 1.56 ng/mL: 0.04). (*p<0.05 by Welch's One-Tailed T-test, n=2)\nFIG. 6A) Bar graph of % EdU+ mouse myoblast cells compared to vehicle. Mouse myoblast were cultured 48h in the presence of indicated factors, followed by a 2 hour EdU pulse prior to fixation. Mean∓S.D. Significant p-values (FM˜BMP7: 0.008 ug/mL: 3.17E-02, FM˜Leucine: 300 uM BMP7: 0.008 ug/mL: 2.77E-03, FM˜Leucine: 100 uM BMP7: 0.008 ug/mL: 3.72E-05, FM˜Leucine: 900 uM BMP7: 0.008 ug/mL: 2.52E-03). (*p<0.05 by One-Way ANOVA Tukey Honest Significant Difference, n=2-6)\nFIG. 7A: Bar graph of % EdU+ mouse myoblast cells compared to vehicle. Mouse myoblast were cultured 48h in the presence of indicated factors. EdU pulse and fixation. Mean∓S.D. (*p<0.05 by Student's One-Tailed T-Test of increased activity, n=2-6)\nFIG. 10A) The suspension CHO cells were transiently transfected with either the empty control plasmid or the FGF17-hFcm encoding plasmid. After four days, the culture supernatants were collected and added into the culture of mouse myoblast cells for 48 hours, followed by a 2 hour EdU pulse prior to fixation. […] FIG. 10B) The suspension CHO cells were transiently transfected with the FGF17-hFcm encoding plasmid. After four days, the culture supernatants were collected and FGF17-hFcm was affinity-purified by Protein A membrane column. The purified FGF17-hFcm was added into the culture of mouse myoblast cells for 48 hours, followed by a 2 hour EdU pulse and fixation.\n(§1) FIG. 11A: SDS-PAGE of culture supernatants from CHO cells transiently transfected with FGF17-hFcm or its mutants encoding plasmids (FGF17d181-216-hFcm, FGF17d204-216-hFcm, FGF17R204QK207Q-hFcm). The expressed FGF17-hFcm proteins and the mutant proteins were indicated by the white arrowheads. FIG. 11B) The culture supernatants from CHO cells transiently transfected with different FGF17 encoding plasmids were added into the culture of mouse myoblast cells for 48 hours followed by 2 hour EdU pulse and fixation.\nas §1, with “12A)” for “11A:”, “(FGF17d197-216-hFcm, FGF17K191AK193AS200A-hFcm).” for “(FGF17d181-216-hFcm, FGF17d204-216-hFcm, FGF17R204QK207Q-hFcm).”, “12B)” for “11B)”, “hours,” for “hours”\nFIG. 14A: Bar graph of % EdU+ mouse myoblast cells compared to vehicle. Myoblast were cultured 48h in the presence of indicated factors. […] Mean∓S.D. Table quantitation of % EdU and p-values (*p<0.05 by One-Way ANOVA Tukey Honest Significant Difference, n=2-6)\nFIG. 15A: Bar graph of % EdU+ mouse myoblast cells compared to vehicle. […] Mean∓S.D. Table quantitation of % EdU and p-values shown. […]"}, "human myoblast cells [2]": {"system": "human myoblast cells", "experiment": "Human myoblast differentiation, percentage area of MyHC", "conditions": "Example 3, purified, 96 hours with daily media change; vehicle control 1.384", "experimental": "(§2) FIG. 1A: The suspension CHO cells were transiently transfected with the IGF2-hFcm encoding plasmid. IGF2-hFcm was affinity-purified by Protein A membrane column. The purified IGF2-hFcm was added into the culture of human myoblast cells for 96 hours. Myosin heavy chain (MyHC) was immunostained and imaged by a fluorescence microscope.\nas §2, with “The” for “FIG. 1A: The”, “IGF2-LhFc4” for “IGF2-hFcm”, “hours with daily media change.” for “hours.”\nThe suspension CHO cells were transiently transfected with the HSA-L-IGF2R61A encoding plasmid. HSA-L-IGF2R61A was affinity-purified by Protein A membrane column. […] Myosin heavy chain (MyHC) was immunostained and imaged by a fluorescence microscope.\nSuspension CHO cells were transiently transfected with the IGF2-hFcm encoding plasmid. […] After quantification of the stained MyHC, the percentage area of MyHC was calculated as the percent of pixels within the field that are illuminated above background in the stained channel. […] Significance was determined by a p-value less than 0.05 by the one-way ANOVA Tukey Honest Significant Difference test."}}}
{"molecule": "CCCC(=O)[O-].[Na+]", "note": "[NaBut, sodium butyrate]", "values": [{"measurement": "Fusion Index (nuclei/myotube)", "setting": "Mouse myoblasts; 0.1 nM", "result": 8.44, "unit": "nuclei/myotube"}, {"measurement": "Fusion Index (nuclei/myotube)", "setting": "Mouse myoblasts; 1 nM", "result": 31.60, "unit": "nuclei/myotube"}, {"measurement": "Fusion Index (nuclei/myotube)", "setting": "Mouse myoblasts; 10 nM", "result": 14.00, "unit": "nuclei/myotube"}, {"measurement": "MYF5 expression fold change compared to FM", "setting": "DM1 human myoblast", "result": 1.128}, {"measurement": "MYOD1 expression fold change compared to FM", "setting": "DM1 human myoblast", "result": 1.095}, {"measurement": "MYOG expression fold change compared to FM", "setting": "DM1 human myoblast", "result": 1.020}, {"measurement": "% eMyHC", "setting": "human myoblast cells [1]; NaBut 1 nM", "result": 2.321, "unit": "%"}, {"measurement": "% eMyHC", "setting": "human myoblast cells [1]; NaBut 10 nM", "result": 6.199, "unit": "%"}, {"measurement": "% eMyHC", "setting": "human myoblast cells [1]; NaBut 100 nM", "result": 8.341, "unit": "%"}]}
{"molecule": "Heparin [reference compound]", "values": [{"measurement": "% EdU", "setting": "mouse myoblast cells; Heparin 0.5 ug/mL, 48h", "result": 1.77, "unit": "%"}, {"measurement": "% EdU", "setting": "mouse myoblast cells; Heparin 1 ug/mL, 48h", "result": 3.01, "unit": "%"}, {"measurement": "% EdU", "setting": "mouse myoblast cells; Heparin 2 ug/mL, 48h", "result": 2.85, "unit": "%"}]}
{"molecule": "Hyaluronic Acid [Hyaluronic Acid (HA)]", "values": [{"measurement": "Effect on BMP7 mitogenic activity (% EdU+)", "setting": "mouse myoblast cells; hyaluronic acid with BMP7, 48h", "result": "Enhances BMP7 Mitogenic Activity"}]}
{"molecule": "IGF2-hFc4: IGF2 fused to hFc4, human IgG4 Fc with S228P point mutation", "values": [{"measurement": "% MyHC", "setting": "human myoblast cells [2]", "result": 6.901, "unit": "%"}]}
{"molecule": "CC(C)C[C@H](N)C(=O)O", "note": "[Leucine]", "values": [{"measurement": "Effect on BMP7 mitogenic activity (% EdU+)", "setting": "mouse myoblast cells; Leucine 100, 300, 900 uM with BMP7 0.008 ug/mL, 48h", "result": "Enhances BMP7 Mitogenic Activity"}]}
